Assay results as given in US20080081823A1, “PIPECOLIC ACID-CONTAINING ANTIDIABETIC COMPOSITIONS” (Ajinomoto Co., Inc., priority 2006, published 2008).

How the values were obtained:
obese model rats = assay: Oral glucose tolerance test in obese model rats (high-fat diets) provided with pipecolic acid for 4 weeks; type: in vivo, Male SD rats; conditions: 0.2 or 0.4% added to high-fat diets for 4 weeks
Description: (a) It is reported that obese model rats produced by giving high-fat diets express insulin resistance and develop hyperinsulinemia. It was examined whether the increase of the blood glucose and blood insulin concentration after oral injection of glucose to these obese model rats could be inhibited by providing them with D,L pipecolic acid for 4 weeks.
(b) Male SD rats of 6 weeks old were used to start the experiment.
(c) 48 rats were divided into 2 groups so that their fasting blood glucoses and body weights became the same. Normal diets or high-fat diets were given to them for 3 weeks (model production period). […] 0, 15, 30, 60, and 120 minutes after the administration, their blood glucose levels and blood insulin concentrations were measured. […]
(d) Farming rats: 48 (6 experimental sections×8) male SD rats of 5 weeks old were purchased from Charles River Laboratories Japan, Inc. and each was separately farmed in an animal room in a light-dark cycle of 12 hours (7:00 to 19:00) at room temperature of 25° C. […] Every Mondays, Wednesdays and Fridays during all periods starting from the model production period to the end of the test period, their body weights and amounts of food ingested were measured, and the feeds were added. […]

normal rats = assay: Oral glucose tolerance test in normal rats provided with pipecolic acid feed for 4 weeks; type: in vivo, Male SD rats; conditions: normal SD rats
Description: (a) It was examined whether the increase of the blood glucose after oral injection of glucose to normal rats could be inhibited by providing them with D,L pipecolic acid for 4 weeks.
(b) Male SD rats of 9 weeks old were used to start the experiment.
(c) 24 normal rats were divided into 3 groups (each group consisting of 8 rats) so that their fasting blood glucose and body weights became the same. Feeds adding 0, 0.2 or 0.4% D,L pipecolic acid were provided to each group for 4 weeks. Then, they were fasted for 17 hours, and 10% glucose solution was orally administered to them in its provided amount of 2 g/kg of body weight. At 0, 15, 30, 60, and 120 minutes after the administration, the blood glucose level and blood insulin concentration were measured.
(§1) (b) Preparation of feeds: D,L pipecolic acid (produced by Aldrich) was mixed in small portions with a commercial feed (CRF-1, produced by Oriental Yeast Co., Ltd.) and further mixed together for 5 minutes by using a universal mixer (produced by Dalton Corporation).
(c) Farming rats: 24 (3 experimental sections×8) male SD rats of 7 weeks old were purchased from Charles River Laboratories Japan, Inc. and each was separately farmed in an animal room in a light-dark cycle of 12 hours (7:00 to 19:00) at room temperature of 25° C. After habituation for two weeks, they were divided into 3 groups based on their body weights and fasting blood glucoses, and then the above feeds were provided for 4 weeks. Every Mondays, Wednesdays and Fridays during the period, their body weights and amounts of food ingested were measured, and the feeds were added. 4 weeks later, the oral glucose tolerance test was conducted.
(d) Oral glucose tolerance test: Fasting was started at 17:00 of the day before the test. At 10:00 of the test day, 10% glucose solution was orally administered to the rats in its provided amount of 2 g/kg of body weight. 0, 15, 30, 60, and 120 minutes after the administration, their blood was collected and their blood glucose levels and blood insulin concentrations were measured. The blood glucose levels were promptly measured after the blood collection by using a biochemical auto-analyzer for animals (Fuji DriChem 5500, produced by Fuji Photo Film Co., Ltd.). Further, the collected blood was centrifuged with a centrifuge (himac CF15D, produced by IlitachiKoki Co., Ltd) to take out the blood plasma, and the blood insulin concentrations were measured by using an insulin measurement kit (produced by Morinaga Institute of Biochemical Science, Inc.). FIG. 1A and FIG. 1B indicate the blood glucose transitions and the area under the blood glucose concentration time curve; and FIG. 1C indicates transitions of the blood insulin concentration.

[1] = tested on: model mice with Type II diabetes; assay: Autopsy: weights of epididymal fats and perinephric fats in model mice with Type II diabetes; type: in vivo, Male KK-Ay mice; conditions: KK-Ay mice, feed adding 0.8%, autopsy at tenth week
Description: (§2) (c) 24 KK-Ay mice were divided into 3 groups based on their body weights, and the blood glucose levels and transitions of the blood insulin concentrations when injected glucose. Feeds adding 0, 0.4 or 0.8% D,L pipecolic acid were provided to each group for 10 weeks. At the second and eighth weeks after starting the test, their blood glucose levels and blood insulin concentrations after oral injection of glucose were measured. At the ninth week, the insulin tolerance test was conducted, and at the tenth week, autopsy was conducted to the samples to measure weights of epididymal fats and perinephric fats.
(§3) (c) Farming mice: 24 male KK-Ay mice of 5 weeks old were purchased from Clea Japan, Inc. and each was separately farmed in an animal room in a light-dark cycle of 12 hours (7:00 to 19:00) at room temperature of 25° C. Then, KK-Ay mice were divided into 3 groups based on their blood glucose levels and blood insulin concentrations measured when giving glucose. […] At the second and eighth weeks, the oral glucose tolerance test was conducted, and their blood glucoses and blood insulin concentrations after oral injection of glucose were measured. […] Then, at the tenth week, autopsy was conducted to the samples, and weights of epididymal fats and perinephric fats were measured to see effects of pipecolic acid on weights of visceral fats. […]

[2] = tested on: model mice with Type II diabetes; assay: Insulin tolerance test in model mice with Type II diabetes; type: in vivo, Male KK-Ay mice; conditions: KK-Ay mice, feed adding 0.8%, ninth week, insulin 0.5 U/kg subcutaneous, compared with additive-free group
Description: as §2, §3

[3] = tested on: model mice with Type II diabetes; assay: Oral glucose tolerance test in model mice with Type II diabetes; type: in vivo, Male KK-Ay mice; conditions: KK-Ay mice; for increase of blood glucose in the oral glucose tolerance test: feed adding 0.4%
Description: (a) It was examined whether D,L pipecolic acid has an effect of improving the pathology of model mice with Type II diabetes.
(b) Male KK-Ay mice, which are the model mice with Type II diabetes, were used to start the experiment.
as §2, with “fats. […]” for “fats.”
(c) Farming mice: 24 male KK-Ay mice of 5 weeks old were purchased from Clea Japan, Inc. and each was separately farmed in an animal room in a light-dark cycle of 12 hours (7:00 to 19:00) at room temperature of 25° C. Then, KK-Ay mice were divided into 3 groups based on their blood glucose levels and blood insulin concentrations measured when giving glucose. […] At the second and eighth weeks, the oral glucose tolerance test was conducted, and their blood glucoses and blood insulin concentrations after oral injection of glucose were measured. […] Then, at the tenth week, autopsy was conducted to the samples, and weights of epididymal fats and perinephric fats were measured to see effects of pipecolic acid on weights of visceral fats.
(d) Oral glucose tolerance test: Fasting was started at 20:00 of the day before the test. […] 0, 30, 60, 120, 180, and 240 minutes after the administration, their blood was collected and their blood glucose levels and blood insulin concentrations were measured. The blood glucose levels were promptly measured after the blood collection by using a biochemical auto-analyzer for animals (Fuji DriChem 5500, produced by Fuji Photo Film Co., Ltd.). […]

[4] = tested on: model mice with Type II diabetes; assay: Measurement of lipids in the liver of model mice with Type II diabetes; type: in vivo, Male KK-Ay mice; conditions: KK-Ay mice
Description: (§4) (a) It was examined whether D,L pipecolic acid has an effect on blood and liver lipids of model mice with Type II diabetes.
(§5) (b) Male KK-Ay mice of 6 weeks old were used to start the experiment.
(§6) (c) 16 KK-Ay mice were divided into 2 groups based on their body weights. Feeds wherein 0 or 1.6% D,L pipecolic acid was added were provided to each group for 5 weeks. At the fifth week, they were fasted, and their blood was collected and their livers were extracted to measure their fasting blood triglyceride, fasting blood total cholesterol, fasting free fatty acids in the blood, total lipids in the liver, liver triglyceride and liver total cholesterol.
as §1
(§7) (c) Farming mice: 16 (2 experimental sections×8) male KK-Ay mice of 4 weeks old were purchased from Clea Japan, Inc. and each was separately farmed in an animal room in a light-dark cycle of 12 hours (7:00 to 19:00) at room temperature of 25° C. After naturalizing two weeks, they were divided into 2 groups based on their body weights, and the above feeds were provided to them for 5 weeks. Every Mondays, Wednesdays and Fridays during the period, their body weights and amounts of food ingested were measured, and the feeds were added. After 5 weeks passed, they were fasted for 17 hours, their blood was collected and their livers were extracted. The fasting blood triglyceride, fasting blood total cholesterol, fasting free fatty acids in the blood, total lipids in the liver, liver triglyceride and liver total cholesterol were measured by using those samples.
(e) Measurement of lipids in the liver: About 0.5 g of a liver sample is homogenized in 10 mL of chloroform/methanol (2:1) solution, and lipids are extracted overnight. […] 5 mL thereof is concentrated by drying with a centrifugal evaporator, and its weight measured becomes total lipids in the liver. […]

[5] = tested on: model mice with Type II diabetes; assay: Measurement of lipids in the blood of model mice with Type II diabetes; type: in vivo, Male KK-Ay mice; conditions: KK-Ay mice, feed adding 1.6% for 5 weeks, fasting, average value
Description: as §4, §5
as §6, with “cholesterol. […]” for “cholesterol.”
as §7, with “After naturalizing two weeks, they were divided into 2 groups based on their body weights, and the above feeds were provided to them for 5 weeks.” left out, “After 5 weeks passed, they were fasted for 17 hours, their blood was collected and their livers were extracted.” left out, “samples. […]” for “samples.”

[6] = feed adding 0.4% for 4 weeks, glucose 2 g/kg oral
[7] = feed adding 1.6% for 5 weeks, average value

For `O=C(O)C1CCCCN1` (centres unmarked) [D,L pipecolic acid], the blood insulin concentration (obese model rats; after glucose 2 g/kg oral) was “decreased to around the same extent as that of the normal diet groups”, the “increase of the blood glucose after giving glucose” value (obese model rats; glucose 2 g/kg oral) was “hardly inhibited” and the “increase of the blood glucose after oral injection of glucose” value (normal rats; feed adding 0.2% for 4 weeks, glucose 2 g/kg oral) was “inhibited”. For the same compound, the blood insulin concentration (normal rats; feed adding 0.2 or 0.4% for 4 weeks, any group and any time period after glucose) was “did not change”, the “blood glucose of 30 and 60 minutes after the administration” value (normal rats; [6]) was “decreased” and the “increase of the blood glucose after oral injection of glucose” value (normal rats; [6]) was “inhibited”. For the same compound, the “weights of epididymal fats” value [1] was “decreased”, the “weights of perinephric fats” value [1] was “decreased” and the “decrease of the blood glucose after administering insulin” value [2] was “promoted”. For the same compound, the “increase of blood glucose in the oral glucose tolerance test” value ([3]; eighth week) was “no strong effect of inhibiting the increase of the blood glucose was confirmed”, the “increase of blood glucose in the oral glucose tolerance test” value ([3]; second week, compared with additive-free group) was “inhibited” and the “increase of the blood glucose after injection of glucose” value ([3]; feed adding 0.8%, until the eighth week) was “effect of inhibiting the increase of the blood glucose after injection of glucose was seen”. For the same compound, the “total lipids in the liver” value ([4]; feed adding 0 or 1.6% for 5 weeks) was “significantly correlate with the additive amount of pipecolic acid”, the “decrease of liver total cholesterol as compared with the control group” value [4, 7] was “about 20%” and the “decrease of liver triglyceride as compared with the control group” value [4, 7] was “about 20%”. For the same compound, the “decrease of blood triglyceride as compared with the control group” value [5] was “about 20%” and the “decrease of free fatty acids in the blood as compared with the control group” value [5] was “about 20%”.
